Columns and labels:
[1] = molecular target: T1, human cloned CHRM4 receptor (M4_CHO cells) (Homo sapiens, UniProt P08173); test: CHRM4 Ca++ Flux Assay (agonist mode, FDSS 7000EX); format: cell-based; details: for Emax: Percent Activity, read-out: M4 FDSS PA; for EC50: geometric mean if tested more than once, read-out: M4 FDSS EC50
T1 construct: expressed in transfected cells; host or cells: CHO-K1
T1 sequence (P08173 1-479): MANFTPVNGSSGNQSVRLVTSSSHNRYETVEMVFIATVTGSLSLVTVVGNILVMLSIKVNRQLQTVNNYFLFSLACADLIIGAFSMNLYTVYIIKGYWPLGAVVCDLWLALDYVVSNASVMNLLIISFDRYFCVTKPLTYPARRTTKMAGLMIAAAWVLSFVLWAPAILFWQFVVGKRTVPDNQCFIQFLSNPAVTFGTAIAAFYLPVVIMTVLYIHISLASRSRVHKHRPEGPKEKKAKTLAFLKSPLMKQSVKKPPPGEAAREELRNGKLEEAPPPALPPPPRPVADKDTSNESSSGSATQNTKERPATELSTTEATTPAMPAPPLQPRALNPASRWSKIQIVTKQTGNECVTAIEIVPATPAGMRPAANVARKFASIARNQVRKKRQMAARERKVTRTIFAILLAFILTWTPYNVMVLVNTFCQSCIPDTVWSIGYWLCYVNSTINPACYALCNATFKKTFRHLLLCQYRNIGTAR
In short: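 M4_CHO cells loaded with a Ca++ dye for at least 1 h were held 60 min at room temperature in HEPES/probenecid buffer with 20 μM ATP. Ca++ flux after an 11-point compound dose, in triplicate and agonist mode, was recorded over 3 min. Four-parameter fits gave curves, with activity expressed relative to the Carbachol EC100.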

[2] = molecular target: T2, human cloned CHRM2 receptor (M2_CHO cells) (Homo sapiens, UniProt P08172); test: CHRM2 Ca++ Flux Assay (agonist mode, FDSS 7000EX); format: cell-based; details: for Emax: Percent Activity measured to EC100 of Carbachol, read-out: M2 FDSS PA; for EC50: agonist mode, geometric mean if tested more than once, read-out: M2 FDSS EC50
T2 construct: expressed in transfected cells; host or cells: CHO-K1
T2 sequence (P08172 1-466): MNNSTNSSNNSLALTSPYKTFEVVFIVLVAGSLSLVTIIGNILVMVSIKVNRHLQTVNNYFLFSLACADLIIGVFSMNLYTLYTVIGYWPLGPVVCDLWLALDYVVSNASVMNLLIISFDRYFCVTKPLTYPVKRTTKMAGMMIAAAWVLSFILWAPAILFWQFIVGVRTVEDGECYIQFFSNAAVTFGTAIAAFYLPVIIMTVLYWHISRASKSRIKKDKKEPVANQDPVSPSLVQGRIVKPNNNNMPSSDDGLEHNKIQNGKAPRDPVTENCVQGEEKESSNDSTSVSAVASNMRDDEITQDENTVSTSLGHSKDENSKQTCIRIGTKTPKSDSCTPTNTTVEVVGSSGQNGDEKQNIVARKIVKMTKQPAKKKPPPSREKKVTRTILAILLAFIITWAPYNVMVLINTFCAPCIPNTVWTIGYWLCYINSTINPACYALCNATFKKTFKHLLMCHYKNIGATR
In short: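 Agonist-mode Ca++ flux in CHO-K1 cells stably expressing human CHRM2, dye-loaded, then held 60 min at room temperature in buffer with 20 μM ATP before compound addition; traces read over 3 minutes. Four-parameter fit of triplicate wells; percent activity relative to Carbachol EC100.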

| Emax [1] [%] | EC50 [1] [nM] | Emax [2] [%] | EC50 [2] [nM] | Compound |
| --- | --- | --- | --- | --- |
| 88 | < 0.4 | 21 | 76 | c1ccc(C2CCN([C@@H]3CCC4(C3)CN(c3nncs3)C4)CC2)c(OC2COC2)c1 [Example 3A, (R)-2-(6-(4-(2-(oxetan-3-yloxy)phenyl)piperidin-1-yl)-2-azaspiro[3.4]octan-2-yl)-1,3,4-thiadiazole] |
| 70 | 1 | 16 | 18 | c1ccc(C2CCN([C@@H]3CCC4(C3)CN(c3nncs3)C4)CC2)c(OC[C@H]2COCCO2)c1 [Example 3B, 2-((R)-6-(4-(2-(((R)-1,4-dioxan-2-yl)methoxy)phenyl)piperidin-1-yl)-2-azaspiro[3.4]octan-2-yl)-1,3,4-thiadiazole] |
| 66 | 2 | 18 | 24 | c1ccc(C2CCN([C@@H]3CCC4(C3)CN(c3nncs3)C4)CC2)c(OC[C@@H]2COCCO2)c1 [Example 3C, 2-((R)-6-(4-(2-(((S)-1,4-dioxan-2-yl)methoxy)phenyl)piperidin-1-yl)-2-azaspiro[3.4]octan-2-yl)-1,3,4-thiadiazole] |
| 71 | 2 | 17 |  | COc1ccccc1C1CCN([C@@H]2CCC3(C2)CN(c2nncs2)C3)CC1 [Example 3D, (R)-2-(6-(4-(2-methoxyphenyl)piperidin-1-yl)-2-azaspiro[3.4]octan-2-yl)-1,3,4-thiadiazole] |
| 87 | 3 | 31 | 191 | Fc1cccc(C2CCN([C@@H]3CCC4(C3)CN(c3nncs3)C4)CC2)c1OC1COC1 [Example 3E, (R)-2-(6-(4-(3-fluoro-2-(oxetan-3-yloxy)phenyl)piperidin-1-yl)-2-azaspiro[3.4]octan-2-yl)-1,3,4-thiadiazole] |
| 60 | 6 | 0 |  | COCCOc1ccccc1C1CCN([C@@H]2CCC3(C2)CN(c2nncs2)C3)CC1 [Example 3F, (R)-2-(6-(4-(2-(2-methoxyethoxy)phenyl)piperidin-1-yl)-2-azaspiro[3.4]octan-2-yl)-1,3,4-thiadiazole] |
| 57 | 7 | 20 | 304 | CC(C)(O)COc1ccccc1C1CCN([C@@H]2CCC3(C2)CN(c2nncs2)C3)CC1 [Example 3G, (R)-1-(2-(1-(2-(1,3,4-thiadiazol-2-yl)-2-azaspiro[3.4]octan-6-yl)piperidin-4-yl)phenoxy)-2-methylpropan-2-ol] |
| 48 | 8 | 0 |  | CC(C)(O)CCOc1ccccc1C1CCN([C@@H]2CCC3(C2)CN(c2nncs2)C3)CC1 [Example 3H, (R)-4-(2-(1-(2-(1,3,4-thiadiazol-2-yl)-2-azaspiro[3.4]octan-6-yl)piperidin-4-yl)phenoxy)-2-methylbutan-2-ol] |
| 70 | 1 | 40 |  | COc1ccccc1C1CCN([C@@H]2CCC3(C2)CN(c2ccns2)C3)CC1 [Example 3I, (R)-5-(6-(4-(2-methoxyphenyl)piperidin-1-yl)-2-azaspiro[3.4]octan-2-yl)isothiazole] |
| 57 | 4 | 0 |  | COCCOc1ccccc1C1CCN([C@@H]2CCC3(C2)CN(c2ncns2)C3)CC1 [Example 3J, (R)-5-(6-(4-(2-(2-methoxyethoxy)phenyl)piperidin-1-yl)-2-azaspiro[3.4]octan-2-yl)-1,2,4-thiadiazole] |
| 68 | 5 | 0 |  | CC(C)(O)COc1ccccc1C1CCN([C@@H]2CCC3(C2)CN(c2ncns2)C3)CC1 [Example 3K, (R)-1-(2-(1-(2-(1,2,4-thiadiazol-5-yl)-2-azaspiro[3.4]octan-6-yl)piperidin-4-yl)phenoxy)-2-methylpropan-2-ol] |
| 34 | 19 | 0 |  | CC(C)(O)CCOc1ccccc1C1CCN([C@@H]2CCC3(C2)CN(c2ncns2)C3)CC1 [Example 3L, (R)-4-(2-(1-(2-(1,2,4-thiadiazol-5-yl)-2-azaspiro[3.4]octan-6-yl)piperidin-4-yl)phenoxy)-2-methylbutan-2-ol] |
| 30 | 18 | 0 |  | COc1ccccc1C1CCN([C@@H]2CCC3(C2)CN(c2nc(C)ns2)C3)CC1 [Example 3M, (R)-5-(6-(4-(2-methoxyphenyl)piperidin-1-yl)-2-azaspiro[3.4]octan-2-yl)-3-methyl-1,2,4-thiadiazole] |
| 83 | 10 | 28 | 1770 | Fc1cncc(N2CC3(CC[C@@H](N4CCC(c5ccccc5C5CCOCC5)CC4)C3)C2)c1 [Example 5AA, (R)-2-(5-fluoropyridin-3-yl)-6-(4-(2-(tetrahydro-2H-pyran-4-yl)phenyl)piperidin-1-yl)-2-azaspiro[3.4]octane] |

The remaining lines, values behind:

| Compound | Emax [1] [%] | EC50 [1] [nM] | Emax [2] [%] | EC50 [2] [nM] |
| --- | --- | --- | --- | --- |
| CC1(COc2ccccc2C2CCN([C@@H]3CCC4(C3)CN(c3nnco3)C4)CC2)CCOCC1 [Example 2E, (R)-2-(6-(4-(2-((4-methyltetrahydro-2H-pyran-4-yl)methoxy)phenyl)piperidin-1-yl)-2-azaspiro[3.4]octan-2-yl)-1,3,4-oxadiazole] | 86 | 2 | 10 | 90 |
| c1ccc(C2CCN([C@@H]3CCC4(C3)CN(c3nnco3)C4)CC2)c(OC2CCOCC2)c1 [Example 2F, (R)-2-(6-(4-(2-((tetrahydro-2H-pyran-4-yl)oxy)phenyl)piperidin-1-yl)-2-azaspiro[3.4]octan-2-yl)-1,3,4-oxadiazole] | 88 | 7 | 22 | 64 |
| c1ccc(C2CCN([C@@H]3CCC4(C3)CN(c3nnco3)C4)CC2)c(OCC2CCOCC2)c1 [Example 2G, (R)-2-(6-(4-(2-((tetrahydro-2H-pyran-4-yl)methoxy)phenyl)piperidin-1-yl)-2-azaspiro[3.4]octan-2-yl)-1,3,4-oxadiazole] | 70 | 7 | 19 | 136 |
| c1ccc(C2CCN([C@@H]3CCC4(C3)CN(c3nnco3)C4)CC2)c(C2CCOCC2)c1 [Example 2H, (R)-2-(6-(4-(2-(tetrahydro-2H-pyran-4-yl)phenyl)piperidin-1-yl)-2-azaspiro[3.4]octan-2-yl)-1,3,4-oxadiazole] | 83 | 3 | 32 | 458 |
| Fc1ccc(C2CCOCC2)c(C2CCN([C@@H]3CCC4(C3)CN(c3nnco3)C4)CC2)c1 [Example 2I, (R)-2-(6-(4-(5-fluoro-2-(tetrahydro-2H-pyran-4-yl)phenyl)piperidin-1-yl)-2-azaspiro[3.4]octan-2-yl)-1,3,4-oxadiazole] | 96 | 1 | 41 | 125 |
| c1ccc(C2CCOC2)c(C2CCN([C@@H]3CCC4(C3)CN(c3nnco3)C4)CC2)c1 (stereo partly drawn) [Example 2K, 2-((6R)-6-(4-(2-(tetrahydrofuran-3-yl)phenyl)piperidin-1-yl)-2-azaspiro[3.4]octan-2-yl)-1,3,4-oxadiazole] | 93 | 3 | 29 | 159 |
| c1ccc(C2CCN([C@@H]3CCC4(C3)CN(c3nnco3)C4)CC2)c(CC2CCOCC2)c1 [Example 2L, (R)-2-(6-(4-(2-((tetrahydro-2H-pyran-4-yl)methyl)phenyl)piperidin-1-yl)-2-azaspiro[3.4]octan-2-yl)-1,3,4-oxadiazole] | 77 | 11 | 0 |  |
| c1ccc(C2CCN([C@@H]3CCC4(C3)CN(c3nnco3)C4)CC2)c(-c2ncco2)c1 [Example 2M, (R)-2-(6-(4-(2-(oxazol-2-yl)phenyl)piperidin-1-yl)-2-azaspiro[3.4]octan-2-yl)-1,3,4-oxadiazole] | 82 | 6 | 18 | 343 |

From patent US12122761B2, “2-azaspiro[3.4]octane derivatives as M4 agonists” (NOVARTIS AG, priority 2019, dated 2024)
